≈ marks a conversion by molar mass, not a printed value.
What was measured:
[1] = test system: OXA 24/40; details: cited from earlier work
[2] = test system: OXA-48; details: cited from earlier work
[3] = test system: OXA-10; details: OXA-10 from Pseudomonas aeruginosa; cited from earlier work
[4] = test system: A. baumannii clinical isolates; assay: Broth microdilution MIC susceptibility testing against carbapenems; type: cell-based, Acinetobacter baumannii
[5] = test system: OXA-24/40; details: cited from earlier work
[6] = test system: OXA-23; details: cited from earlier work
[7] = test system: A. baumannii ARC5955; assay: Neutropenic murine thigh infection model; type: in vivo; details: thigh tissue, CD-1 mice, 24 h after initiation of therapy, 40 mg/kg SC/q24h; for Change in log10 CFU/g: 40 mg/kg
[8] = Acinetobacter baumannii, strain CCF 1MR
[9] = Acinetobacter baumannii, strain CCF 2MR
[10] = Acinetobacter baumannii, strain CCF 3MR
[11] = Acinetobacter baumannii, strain CCF 4MR
[12] = Acinetobacter baumannii, strain CCF 5MR
[13] = Acinetobacter baumannii, strain CCF 6MR
[14] = Acinetobacter baumannii, strain CCF 7MR
[15] = Acinetobacter baumannii, strain CCF 8MR
[16] = Acinetobacter baumannii, strain UH AB202
[17] = Acinetobacter baumannii, strain UH AB461
[18] = Acinetobacter baumannii, strain UH AB477
[19] = Acinetobacter baumannii, strain UH AB487
[20] = Acinetobacter baumannii, strain UH AB489
[21] = Acinetobacter baumannii, strain UH AB490
[22] = Acinetobacter baumannii, strain UH AB491
[23] = Acinetobacter baumannii, strain UH AB636
[24] = Acinetobacter baumannii, strain UH AB660
[25] = Acinetobacter baumannii, strain UH AB667
[26] = Acinetobacter baumannii, strain VA-432
[27] = Acinetobacter baumannii, strain VA-433
[28] = Acinetobacter baumannii, strain VA-434
[29] = Acinetobacter baumannii, strain VA-435
[30] = Acinetobacter baumannii, strain VA-436
[31] = Acinetobacter baumannii, strain VA-437
[32] = Acinetobacter baumannii, strain VA-438
[33] = Acinetobacter baumannii, strain VA-505

NC(=O)[C@@H]1CC[C@@H]2CN1C(=O)N2OS(=O)(=O)O [Avibactam, avibactam]
k2/Ki [2]: 1.4 ± 0.1 × 10^3 M^−1 s^−1
k2/Ki [3]: 1.1 ± 0.1 × 10^1 M^−1 s^−1

C[C@@H](O)[C@H]1C(=O)N2C(C(=O)O)=C(SCCN=CN)C[C@H]12 [Imipenem]
MIC [4, 8]: > 8 µg/mL
MIC [4, 9]: > 8 µg/mL
MIC [4, 10]: > 8 µg/mL
MIC [4, 11]: > 8 µg/mL
MIC [4, 12]: > 8 µg/mL
MIC [4, 13]: > 8 µg/mL
MIC [4, 14]: > 8 µg/mL
MIC [4, 15]: > 8 µg/mL
MIC [4, 16]: > 8 µg/mL
MIC [4, 17]: > 8 µg/mL
MIC [4, 18]: > 8 µg/mL
MIC [4, 19]: > 8 µg/mL
MIC [4, 20]: > 8 µg/mL
MIC [4, 21]: > 8 µg/mL
MIC [4, 22]: > 8 µg/mL
MIC [4, 23]: > 8 µg/mL
MIC [4, 24]: > 8 µg/mL
MIC [4, 25]: > 8 µg/mL
MIC [4, 26]: 32 µg/mL (≈ 107 µM)
MIC [4, 27]: 16 µg/mL (≈ 53.4 µM)
MIC [4, 28]: 64 µg/mL (≈ 214 µM)
MIC [4, 29]: 32 µg/mL (≈ 107 µM)
MIC [4, 30]: 64 µg/mL (≈ 214 µM)
MIC [4, 31]: 32 µg/mL (≈ 107 µM)
MIC [4, 32]: 16 µg/mL (≈ 53.4 µM)
MIC [4, 33]: 32 µg/mL (≈ 107 µM)

C[C@@H](O)[C@H]1C(=O)N2C(C(=O)O)=C(S[C@@H]3CN[C@H](C(=O)N(C)C)C3)[C@H](C)[C@H]12 [Meropenem]
isolates resistant (R ≥ 8 according to CLSI) ([4]; 72 WRAMC isolates (seventeen of 72)): 24%
MIC50 ([4]; Acinetobacter baumannii): 1 µg/mL (≈ 2.61 µM)
MIC90 ([4]; Acinetobacter baumannii): 32 µg/mL (≈ 83.4 µM)
MIC ([4]; Acinetobacter baumannii, strain AB001): 1 µg/mL (≈ 2.61 µM)
MIC ([4]; Acinetobacter baumannii, strain AB002): 2 µg/mL (≈ 5.22 µM)
MIC ([4]; Acinetobacter baumannii, strain AB003): 2 µg/mL (≈ 5.22 µM)
MIC ([4]; Acinetobacter baumannii, strain AB004): 2 µg/mL (≈ 5.22 µM)
MIC ([4]; Acinetobacter baumannii, strain AB005): 1 µg/mL (≈ 2.61 µM)
MIC ([4]; Acinetobacter baumannii, strain AB006): 4 µg/mL (≈ 10.4 µM)
MIC ([4]; Acinetobacter baumannii, strain AB007): 0.5 µg/mL (≈ 1.3 µM)
MIC ([4]; Acinetobacter baumannii, strain AB008): 1 µg/mL (≈ 2.61 µM)
MIC ([4]; Acinetobacter baumannii, strain AB009): 1 µg/mL (≈ 2.61 µM)
MIC ([4]; Acinetobacter baumannii, strain AB010): 1 µg/mL (≈ 2.61 µM)
MIC ([4]; Acinetobacter baumannii, strain AB011): 1 µg/mL (≈ 2.61 µM)
MIC ([4]; Acinetobacter baumannii, strain AB012): 1 µg/mL (≈ 2.61 µM)
MIC ([4]; Acinetobacter baumannii, strain AB013): 1 µg/mL (≈ 2.61 µM)
MIC ([4]; Acinetobacter baumannii, strain AB014): 1 µg/mL (≈ 2.61 µM)
MIC ([4]; Acinetobacter baumannii, strain AB015): 2 µg/mL (≈ 5.22 µM)
MIC ([4]; Acinetobacter baumannii, strain AB016): 0.5 µg/mL (≈ 1.3 µM)
MIC ([4]; Acinetobacter baumannii, strain AB017): 0.5 µg/mL (≈ 1.3 µM)
MIC ([4]; Acinetobacter baumannii, strain AB018): 0.5 µg/mL (≈ 1.3 µM)
MIC ([4]; Acinetobacter baumannii, strain AB019): 0.25 µg/mL (≈ 0.652 µM)
MIC ([4]; Acinetobacter baumannii, strain AB020): 0.5 µg/mL (≈ 1.3 µM)
MIC ([4]; Acinetobacter baumannii, strain AB021): 0.5 µg/mL (≈ 1.3 µM)
MIC ([4]; Acinetobacter baumannii, strain AB022): 0.5 µg/mL (≈ 1.3 µM)
MIC ([4]; Acinetobacter baumannii, strain AB023): 2 µg/mL (≈ 5.22 µM)
MIC ([4]; Acinetobacter baumannii, strain AB024): 0.5 µg/mL (≈ 1.3 µM)
MIC ([4]; Acinetobacter baumannii, strain AB025): 0.5 µg/mL (≈ 1.3 µM)
MIC ([4]; Acinetobacter baumannii, strain AB026): 1 µg/mL (≈ 2.61 µM)
MIC ([4]; Acinetobacter baumannii, strain AB027): 0.5 µg/mL (≈ 1.3 µM)
MIC ([4]; Acinetobacter baumannii, strain AB028): 0.5 µg/mL (≈ 1.3 µM)
MIC ([4]; Acinetobacter baumannii, strain AB029): 0.5 µg/mL (≈ 1.3 µM)
MIC ([4]; Acinetobacter baumannii, strain AB030): 1 µg/mL (≈ 2.61 µM)
MIC ([4]; Acinetobacter baumannii, strain AB031): 1 µg/mL (≈ 2.61 µM)
MIC ([4]; Acinetobacter baumannii, strain AB032): 0.5 µg/mL (≈ 1.3 µM)
MIC ([4]; Acinetobacter baumannii, strain AB033): 1 µg/mL (≈ 2.61 µM)
MIC ([4]; Acinetobacter baumannii, strain AB034): 1 µg/mL (≈ 2.61 µM)
MIC ([4]; Acinetobacter baumannii, strain AB035): 0.25 µg/mL (≈ 0.652 µM)
MIC ([4]; Acinetobacter baumannii, strain AB036): 0.5 µg/mL (≈ 1.3 µM)
MIC ([4]; Acinetobacter baumannii, strain AB037): 0.25 µg/mL (≈ 0.652 µM)
MIC ([4]; Acinetobacter baumannii, strain AB038): 1 µg/mL (≈ 2.61 µM)
MIC ([4]; Acinetobacter baumannii, strain AB039): 1 µg/mL (≈ 2.61 µM)
MIC ([4]; Acinetobacter baumannii, strain AB040): 0.5 µg/mL (≈ 1.3 µM)
MIC ([4]; Acinetobacter baumannii, strain AB041): 0.5 µg/mL (≈ 1.3 µM)
MIC ([4]; Acinetobacter baumannii, strain AB042): 4 µg/mL (≈ 10.4 µM)
MIC ([4]; Acinetobacter baumannii, strain AB043): 16 µg/mL (≈ 41.7 µM)
MIC ([4]; Acinetobacter baumannii, strain AB044): 8 µg/mL (≈ 20.9 µM)
MIC ([4]; Acinetobacter baumannii, strain AB045): 8 µg/mL (≈ 20.9 µM)
MIC ([4]; Acinetobacter baumannii, strain AB046): 16 µg/mL (≈ 41.7 µM)
MIC ([4]; Acinetobacter baumannii, strain AB047): 8 µg/mL (≈ 20.9 µM)
MIC ([4]; Acinetobacter baumannii, strain AB048): 16 µg/mL (≈ 41.7 µM)
MIC ([4]; Acinetobacter baumannii, strain AB049): 32 µg/mL (≈ 83.4 µM)
MIC ([4]; Acinetobacter baumannii, strain AB050): 16 µg/mL (≈ 41.7 µM)
MIC ([4]; Acinetobacter baumannii, strain AB051): 1 µg/mL (≈ 2.61 µM)
MIC ([4]; Acinetobacter baumannii, strain AB052): 2 µg/mL (≈ 5.22 µM)
MIC ([4]; Acinetobacter baumannii, strain AB053): 2 µg/mL (≈ 5.22 µM)
MIC ([4]; Acinetobacter baumannii, strain AB054): 32 µg/mL (≈ 83.4 µM)
MIC ([4]; Acinetobacter baumannii, strain AB055): 8 µg/mL (≈ 20.9 µM)
MIC ([4]; Acinetobacter baumannii, strain AB056): 16 µg/mL (≈ 41.7 µM)
MIC ([4]; Acinetobacter baumannii, strain AB057): 32 µg/mL (≈ 83.4 µM)
MIC ([4]; Acinetobacter baumannii, strain AB058): 2 µg/mL (≈ 5.22 µM)
MIC ([4]; Acinetobacter baumannii, strain AB059): 32 µg/mL (≈ 83.4 µM)
MIC ([4]; Acinetobacter baumannii, strain AB060): 32 µg/mL (≈ 83.4 µM)
MIC ([4]; Acinetobacter baumannii, strain AB061): 32 µg/mL (≈ 83.4 µM)
MIC ([4]; Acinetobacter baumannii, strain AB062): 64 µg/mL (≈ 167 µM)
MIC ([4]; Acinetobacter baumannii, strain AB063): 0.5 µg/mL (≈ 1.3 µM)
MIC ([4]; Acinetobacter baumannii, strain AB064): 0.25 µg/mL (≈ 0.652 µM)
MIC ([4]; Acinetobacter baumannii, strain AB065): 32 µg/mL (≈ 83.4 µM)
MIC ([4]; Acinetobacter baumannii, strain AB066): 0.25 µg/mL (≈ 0.652 µM)
MIC ([4]; Acinetobacter baumannii, strain AB067): 0.25 µg/mL (≈ 0.652 µM)
MIC ([4]; Acinetobacter baumannii, strain AB068): 1 µg/mL (≈ 2.61 µM)
MIC ([4]; Acinetobacter baumannii, strain AB069): 1 µg/mL (≈ 2.61 µM)
MIC ([4]; Acinetobacter baumannii, strain AB070): 2 µg/mL (≈ 5.22 µM)
MIC ([4]; Acinetobacter baumannii, strain AB071): 0.5 µg/mL (≈ 1.3 µM)
MIC ([4]; Acinetobacter baumannii, strain AB072): 0.25 µg/mL (≈ 0.652 µM)
MIC [4, 8]: > 8 µg/mL
MIC [4, 9]: > 8 µg/mL
MIC [4, 10]: > 8 µg/mL
MIC [4, 11]: > 8 µg/mL
MIC [4, 12]: > 8 µg/mL
MIC [4, 13]: > 8 µg/mL
MIC [4, 14]: > 8 µg/mL
MIC [4, 15]: > 8 µg/mL
MIC [4, 16]: > 8 µg/mL
MIC [4, 17]: > 8 µg/mL
MIC [4, 18]: > 8 µg/mL
MIC [4, 19]: > 8 µg/mL
MIC [4, 20]: > 8 µg/mL
MIC [4, 21]: > 8 µg/mL
MIC [4, 22]: > 8 µg/mL
MIC [4, 23]: > 8 µg/mL
MIC [4, 24]: > 8 µg/mL
MIC [4, 25]: > 8 µg/mL
MIC [4, 26]: 64 µg/mL (≈ 167 µM)
MIC [4, 27]: 32 µg/mL (≈ 83.4 µM)
MIC [4, 28]: 64 µg/mL (≈ 167 µM)
MIC [4, 29]: 64 µg/mL (≈ 167 µM)
MIC [4, 30]: 64 µg/mL (≈ 167 µM)
MIC [4, 31]: 32 µg/mL (≈ 83.4 µM)
MIC [4, 32]: 32 µg/mL (≈ 83.4 µM)
MIC [4, 33]: 32 µg/mL (≈ 83.4 µM)

N#CC1CC[C@@H]2CN1C(=O)N2OS(=O)(=O)O (stereo partly shown) [WCK 4234]
k2/Ki [5]: 9.6 ± 1 × 10^3 M^−1 s^−1
k2/Ki [6]: 1.7 ± 0.2 × 10^4 M^−1 s^−1

CC1=C[C@@H](C(N)=O)N2C[C@@H]1N(OS(=O)(=O)O)C2=O [compound 3]
IC50 [1]: 0.36 µM

Colistin
Log10 CFU/g [7]: 5.3 log10 CFU/g
Change in log10 CFU/g [7]: −1.4 log10 CFU/g
Change in log10 CFU/g ([7]; listed as colistin): −1.36 log10 CFU/g

Source: paper PMC6414696 (mBio, 2019)
